Values quoted from earlier work, collected in patent publication US10485783B1, “Methods and compositions for reducing or eliminating symptoms of withdrawal from drugs and alcohol” (Longevity Healthcare Center, priority 2018, dated 2019).

Columns and labels:
[1] = in vitro
[2] = system: GABAA and GABAB receptors; conditions: synergistic with a GABAA receptor agonist, blocked by a GABAB receptor agonist
[3] = system: rats self-administering morphine; conditions: morphine 2 hours per day on 10 consecutive days, then ascorbic acid intraperitoneally

SMILES	concentration at which ascorbic acid generates free radicals (pro-oxidant) [1]	anti-depressive activity [2]	level of morphine self-administration (number of lever pressings) and number and intensity of withdrawal symptoms [3]
O=C1O[C@H]([C@@H](O)CO)C(O)=C1O [ascorbic acid]	3 to 5 mM	anti-depressive activity	decrease
CNC1(c2ccccc2Cl)CCCCC1=O (stereo not shown) [Ketamine]	–	anti-depressive activity	–
